Laboratory results as given in patent publication US20070003987A1, “Screening method for substance binding to merozoite surface protein-1/42” (priority 2003, published 2007).
pIC50: −log10 of the molar value.

Tests used:
P. falciparum (FCB-1) [1] = test: short-term in vitro invasion assay (newly invaded ring stages counted by microscopy); format: cell-based, Plasmodium falciparum
Experimental: (§1) Asexual blood stages of P. falciparum (FCB-1) were maintained at 37° C. in RPMI 1640/Albumax medium (Gibco) supplemented with 2 mM L-glutamine as previously described (Blackman, 1994 Methods Cell Biol. 45, 213-220). Cultures were gassed with 7% CO2, 5% O2 and 88% N2 and maintained by routine passage in fresh human erythrocytes. Parasites were synchronised by Percoll and sorbitol treatment (Holder & Freeman, 1982 J. Exp. Med. 156, 1528-1538); schizonts were purified by centrifugation over Percoll and then returned to culture in the presence of fresh erythrocytes. After 4 h, during which time released merozoites invaded erythrocytes, the cells were treated with 5% sorbitol for 10 min to lyse the residual schizonts, before returning the parasites to culture.
Compounds were tested for their ability to inhibit invasion in vitro, using two approaches: a short-term assay in which the number of newly invaded erythrocytes was counted using microscopy, and a growth assay measuring uptake of [^3H] hypoxanthine. In the short term-assay (described previously by Blackman et al, 1990 J. Exp. Med. 172, 379-382), compounds were incubated with purified P. falciparum schizonts at ^˜2% parasitaemia and ^˜2% haematocrit in triplicate cultures. After between 6 and 24 h, blood smears were stained with Giemsa's reagent and examined by microscopy. […]

P. falciparum (FCB-1) [2] = test: growth inhibition assay by [3H] hypoxanthine uptake; format: cell-based, Plasmodium falciparum; details: Plasmodium falciparum, Erythrocyte, read-out: IC50, inhibition of erythrocyte invasion ([3H] hypoxanthine incorporation, FIG. 2)
Experimental: as §1
Suramin and NTS were also assayed for P. falciparum growth inhibition using [^3H] hypoxanthine uptake (generally as described by Desjardins et al, 1979 Antimicrob. Agents Chemother. 16, 710-718). Serial dilutions of the compounds in 96-well plates were incubated at 37° C. with purified mature schizonts at a final parasitaemia of ^˜0.5% and a haematrocrit of ^˜2% in triplicate cultures. […] The filters were wetted with scintillation cocktail and the bound radioactivity counted in a β-counter. […] The amount of radioactivity in each sample was expressed as a percentage of activity in the control wells containing no compound. […]

MSP142 = MSP142 (Plasmodium falciparum, UniProt Q8I0U8); test: inhibition of suramin binding (fluorescence, 384-well plate); details: λex 320 nm/λem 405 nm
Chain of MSP142 (Q8I0U8 1327-1699): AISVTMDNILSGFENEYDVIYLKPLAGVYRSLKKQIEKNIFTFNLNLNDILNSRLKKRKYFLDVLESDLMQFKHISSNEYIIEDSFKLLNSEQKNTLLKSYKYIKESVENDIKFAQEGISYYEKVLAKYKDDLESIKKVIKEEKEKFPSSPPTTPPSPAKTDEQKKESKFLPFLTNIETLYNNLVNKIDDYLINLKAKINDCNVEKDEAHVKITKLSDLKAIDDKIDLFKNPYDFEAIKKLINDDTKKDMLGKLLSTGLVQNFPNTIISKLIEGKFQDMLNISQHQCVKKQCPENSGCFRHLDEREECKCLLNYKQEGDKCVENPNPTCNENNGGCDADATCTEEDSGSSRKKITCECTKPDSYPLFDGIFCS
Experimental: MSP142 (0.1 mg/ml), 10 μM suramin analogue and 2 μM suramin were combined in a 384-well black polypropylene low binding plate (total reaction volume 100 μL). Fluorescence was read at λex 320 nm/λem 405 nm on a BMG Polarstar fluorimeter. Readings were taken before, and 1 hour after, addition of suramin.

P. vivax MSP142 = test: binding of suramin by fluorimetry
Description: The MSP142 protein from P. vivax was cloned into plasmid jmp28, a modified pET-28 vector that encodes an N-terminal peptide MHHHHHHIEGRWIL immediately upstream of the inserted sequence. P. vivax (Belem strain) DNA was used as a template for PCR based cloning. The sequence of the expressed protein (following the vector encoded N-terminal peptide) corresponded to residues Asp 1325 to Ser 1704, Accession number A39401.
The protein was expressed in BL21(DE3)pLysS cells by induction of a culture at an OD600 of 0.6-0.8 with IPTG at a final concentration of 1 mM. The cells were induced for 3 h at 37° C. and then harvested by centrifugation. […]
The intrinsic fluorescence of suramin was used to determine its capacity to bind to the various MSP1-derived proteins. The fluorescence was measured using a Perkin Elmer LS-3B or a Spex Fluoro Max 2 fluorimeter. Suramin was excited at a wavelength of 315 or 330 nm with 2.5 nm resolution, the emission spectra were measured at wavelengths ranging from 350-450 nm. Suramin and the MSP1 proteins were diluted in 20 mM NaH2PO4, 150 mM NaCl at pH 7.2 and analysed at 10 or 20° C. […] The Kd for the suramin-MSP1 binding was determined from three independent experiments.

Cc1ccc(C(=O)Nc2ccc(S(=O)(=O)O)c3cc(S(=O)(=O)O)cc(S(=O)(=O)O)c23)cc1NC(=O)c1cccc(NC(=O)Nc2cccc(C(=O)Nc3cc(C(=O)Nc4ccc(S(=O)(=O)O)c5cc(S(=O)(=O)O)cc(S(=O)(=O)O)c45)ccc3C)c2)c1 [suramin]
inhibition of merozoite invasion of erythrocytes (microscopy, Giemsa) (P. falciparum (FCB-1) [1]): inhibited merozoite invasion of erythrocytes | inhibition of merozoite release from schizonts (microscopy) (P. falciparum (FCB-1) [1]): did not inhibit merozoite release from schizonts | pIC50 (P. falciparum (FCB-1) [2]): 4.22 | signal to noise ratio of fluorescence signal (MSP142): 1.8 | enhancement of intrinsic suramin fluorescence on binding (P. vivax MSP142): large binding-induced enhancements
